In brackets after ≈: the same amount, converted by molar mass. Several values for one entry are separate records, joined by “and”; a condition that tells them apart may be missing. Equal values may be shown once. Read-outs that look alike come from different tables or passages of the source.
Tests used:
[1] = Lipophilicity determination using RP-HPLC (capacity factor, log k); format: physicochemical; conditions: C18, MeOH 55%/H2O 45%
Text: Reversed phase high performance liquid chromatography (RP-HPLC) methods have become popular and are widely used for lipophilicity measurements. The general procedure is the measurement of the directly accessible retention time under isocratic conditions using varying amounts of methanol as an organic modifier in the mobile phase using RP columns and calculating the logarithm of the capacity factors (log k). Log k is the logarithm of the capacity factors in chromatographic approaches that is related to the partitioning of a compound between a mobile and a (pseudo-)stationary phase. Log k is used as the lipophilicity index converted to log P scale.
A Waters Alliance 2695 XE HPLC separation module and a Waters Photodiode Array Detector 2996 (Waters Corp., Milford, MA, USA) were used. A Symmetry® C18 5 μm, 4.6 × 250 mm, Part No. WAT054275 (Waters Corp.) chromatographic column was used. The HPLC separation process was monitored using Empower™ 2 Chromatography Data Software, Waters 2009 (Waters Corp.). A mixture of MeOH p.a. (55%) and H2O-HPLC-Mili-Q Grade (45%) was used as a mobile phase. The total flow of the column was 0.9 mL/min, injection volume 30 μL, column temperature 30 °C and sample temperature 10 °C. A detection wavelength of 210 nm was chosen. A KI methanolic solution was used for the determination of dead time (tD). Retention times (tR) were measured in minutes. The capacity factors k were calculated using the Empower™ 2 Chromatography Data Software according to the formula k = (tR − tD)/tD, where tR is the retention time of the solute, whereas tD denotes the dead time obtained using an unretained analyte. Log k, calculated from the capacity factor k, is used as the lipophilicity index converted to log P scale.

[2] = tested on: photosynthetic electron transport (PET) in spinach chloroplasts; experiment: Inhibition of photosynthetic electron transport (PET) in spinach chloroplasts; format: biochemical, Spinacia oleracea L.; conditions: DCPIP photoreduction
Procedure: Chloroplasts were prepared from spinach (Spinacia oleracea L.) according to Masarovicova and Kralova. The inhibition of the photosynthetic electron transport (PET) in spinach chloroplasts was determined spectrophotometrically (Genesys 6, Thermo Fisher Scientific, Waltham, MA, USA) using an artificial electron acceptor 2,6-dichlorophenol-indophenol (DCIPP) according to Kralova et al. and the rate of photosynthetic electron transport was monitored as a photoreduction of DCPIP. The measurements were carried out in a phosphate buffer (0.02 mol/L, pH 7.2) containing sucrose (0.4 mol/L), MgCl2 (0.005 mol/L) and NaCl (0.015 mol/L). The chlorophyll content was 30 mg/L in these experiments and the samples were irradiated (~100 W/m^2 with 10 cm distance) with a halogen lamp (250 W) using a 4 cm water filter to prevent warming of the samples (suspension temperature 22 °C). The compounds studied were dissolved in DMSO due to their limited water solubility. […] The inhibitory efficiency of the compounds studied was expressed by IC50 values, i.e., by the molar concentration of the compounds that caused a 50% decrease in the oxygen evolution rate relative to the untreated control.

[3] = tested on: Candida albicans ATCC 44859; experiment: In vitro antifungal susceptibility, broth microdilution; format: cell-based; conditions: read-out: MIC (IC80) CA
Candida tropicalis 156 = experiment: as above; format: cell-based; conditions: read-out: MIC (IC80) CT
Candida krusei ATCC 6258 = experiment: as above; format: cell-based; conditions: Pichia kudriavzevii, read-out: MIC (IC80) CK
Candida glabrata 20/I = experiment: as above; format: cell-based; conditions: Nakaseomyces glabratus, read-out: MIC (IC80) CG
[4] = tested on: Trichosporon beigelii 1188; experiment: as above; format: cell-based
Text: The broth microdilution test was used for the assessment of the in vitro antifungal activity of the synthesized compounds against Candida albicans ATCC 44859 (CA), Candida tropicalis 156 (CT), Candida krusei ATCC 6258 (CK), Candida glabrata 20/I (CG), Trichosporon beigelii 1188 (TB), Aspergillus fumigatus 231 (AF), Absidia corymbifera 272 (AC), and Trichophyton mentagrophytes 445 (TM). Fluconazole (FLU) was used as the standard since it is a clinically used antimycotic drug. The procedure was performed using a twofold dilution of the compounds in RPMI 1640 (Sevapharma a.s., Prague, Czech Republic) buffered to pH 7.0 with […] of 3-morpholino-propane-1-sulfonic acid (MOPS, Sigma, Prague, Czech Republic). The final concentrations of the compounds ranged from 500 to 0.975 μmol/L. Drug-free controls were included. The determination of minimum inhibitory concentration (MIC) was performed according to the Clinical and Laboratory Standards Institute (CLSI, formerly NCCLS) reference protocol M27-A2 for yeasts (IC80 value) and M38-A for moulds (IC50 value). IC80 and IC50 were defined as an 80% resp. 50% or greater reduction in growth in comparison with the control. The values of MICs were determined after 24 and 48 h of static incubation at 35 °C. The final MICs for T. mentagrophytes, were determined after 72 and 120 h of incubation.

[5] = tested on: Aspergillus fumigatus 231; experiment: as above; format: cell-based; conditions: read-out: MIC (IC50) AF
Absidia corymbifera 272 = experiment: as above; format: cell-based; conditions: read-out: MIC (IC50) AC
[6] = tested on: Trichophyton mentagrophytes 445; experiment: as above; format: cell-based; conditions: read-out: MIC (IC50) TM
[7] = tested on: HCT-116 human colon cancer cells (p53 wild type); experiment: In vitro antiproliferative activity, MTS assay; format: cell-based; conditions: read-out: HCT-116 IC50
Procedure: The antiproliferative activity of all of the compounds was examined against the human colon cancer (HCT-116) cell line using an MTS assay. The HCT-116 p53 wild type cell line was chosen on the basis of our former experience and some results on the activity of quinoline-based thiosemicarbazones that was published recently. Namely, compounds 4a–l have been tested previously for their wide-ranging anticancer activity. The antiproliferative activity of the compounds evaluated was assessed using Doxorubicin as a reference compound. In general, quinoline-based thiosemicarbazones 4 seem to have a much better anticancer activity than halogenophenyl compounds 3. Thus, the quinoline nucleus can be defined as being crucial for antiproliferative activity. A more detailed analysis of the anticancer activity of quinoline-based thiosemicarbazone is available. […] Nevertheless, some more general conclusions can be drawn from the gathered data. […] The free amino group or substitution pattern with small substituents such as methyl or ethyl are favorable for activity. According to our former results the chelating ability of the compounds may be one of the prerequisites of the antiproliferative activity. In this study we have measured the UV-VIS spectra of the compounds in presence of various concentration of Fe^3+ cations to observe its chelating potency (supplementary material). […] However as 4j give also two points at 330 and 385 nm, iron chelating ability should be regarded only as one of the factor influencing the biological activity.
The human colon cancer cell line HCT116 with the wild type p53 gene (p53^+/+) were obtained from Maria Sklodowska-Curie Memorial Cancer Center in Gliwice, Poland. Briefly, the cells were seeded in 96-well plates (3 × 10^3 cells/well) in cellular proliferation assays 24 h before the addition of the chelators. The assay was performed following a 72 h incubation with varying concentrations of the agents. Each compound was tested in triplicate in a single experiment with each experiment being repeated 3 times. After 72 h incubation with the compounds being investigated, 20 µL of MTS solution was added to each well (100 µL) and incubated for 1 h at 37 °C. The optical densities of the samples were analyzed at 490 nm. Results were expressed as a percentage of the control. The inhibitory concentration (IC50) was defined as the compound concentration necessary to reduce the absorbance to 50% of the untreated control.

[8] = ATCC44859, 24 h and 48 h, only one value presented (inactive)
[9] = Candida tropicalis, 156, 24 h and 48 h, only one value presented (inactive)
[10] = ATCC6258, 24 h and 48 h, only one value presented (inactive)
[11] = 24 h and 48 h, only one value presented (inactive)
[12] = Trichosporon beigelii, 1188, 24 h and 48 h, only one value presented (inactive), read-out: MIC (IC80) TB
[13] = Aspergillus fumigatus, 231, 24 h and 48 h, only one value presented (inactive)
[14] = Lichtheimia corymbifera, 272, 24 h and 48 h, only one value presented (inactive)
[15] = Trichophyton mentagrophytes, 445, 72 h and 120 h, only one value presented (inactive)

| Compound | log k [1] | MIC [3, 8] [µM] | MIC (Candida tropicalis 156; [9]) [µM] | MIC (Candida krusei ATCC 6258; [10]) [µM] | MIC (Candida glabrata 20/I; [11]) [µM] | MIC [4, 12] [µM] | IC50 [5, 13] [µM] | IC50 (Absidia corymbifera 272; [14]) [µM] | IC50 [6, 15] [µM] | IC50 ([7]; HCT-116, 72 h incubation, MTS) [µM] | further results |
| --- | --- | --- | --- | --- | --- | --- | --- | --- | --- | --- | --- |
| CNC(=S)N/N=C/c1cccc(Cl)c1Cl [Compound 3b, (E)-2-(2,3-Dichlorobenzylidene)-N-methylhydrazinecarbothioamide] | 0.7357 | > 500 | > 500 | > 500 | > 500 | > 500 | > 500 | > 500 | > 500 | > 60 | IC50 [2]: 170 µM |
| CN(C)C(=S)N/N=C/c1cccc(Cl)c1Cl [Compound 3c, (E)-2-(2,3-Dichlorobenzylidene)-N,N-dimethylhydrazinecarbothioamide] | 0.7214 | > 125 | > 125 | > 125 | > 125 | > 125 | > 125 | > 125 | > 125 |  |  |
| S=C(N/N=C/c1cccc(Cl)c1Cl)Nc1ccccc1 [Compound 3e, (E)-2-(2,3-dichlorobenzylidene)-N-phenylhydrazinecarbothioamide] | 0.9230 | > 125 | > 125 | > 125 | > 125 | > 125 | > 125 | > 125 | > 125 | > 60 | IC50 [2]: 499 µM |
| CNC(=S)N/N=C/c1ccc(Br)cc1 [Compound 3l, (E)-2-(4-bromobenzylidene)-N-methylhydrazinecarbothioamide] | 0.6993 | > 500 | > 500 | > 500 | > 500 | > 500 | > 500 | > 500 | > 500 | > 60 |  |
| S=C(N/N=C/c1ccc(Br)cc1)Nc1ccccc1 [Compound 3o, (E)-2-(4-bromobenzylidene)-N-phenylhydrazinecarbothioamide] | 0.8772 | > 500 | > 500 | > 500 | > 500 | > 500 | > 500 | > 500 | > 500 | > 60 |  |
| CNC(=S)NN=Cc1ccc2ccccc2n1 [Compound 4a] | 0.6329 | > 500 | > 500 | > 500 | > 500 |  | > 500 | > 500 | > 500 | > 25 | MIC ([4]; Trichosporon beigelii, 1188, read-out: MIC (IC80) TB): > 500 µM |
| CCNC(=S)NN=Cc1ccc2ccccc2n1 [Compound 4c] | 0.6892 |  |  |  |  |  |  |  |  |  |  |
| S=C(NN=Cc1ccc2ccccc2n1)Nc1ccccc1 [Compound 4d] | 0.7553 |  |  |  |  |  |  |  |  |  |  |
| CCNC(=S)NN=Cc1ccc2cccc(O)c2n1 [Compound 4g] | 0.6810 |  |  |  |  |  |  |  |  |  |  |
| CN(C)C(=O)Nc1ccc(Cl)c(Cl)c1 [DCMU, 3-(3,4-dichlorophenyl)-1,1-dimethylurea, reference compound] |  |  |  |  |  |  |  |  |  |  | IC50 [2]: ~1.9 µM and 1.9 µM |
| COc1cccc2c1C(=O)c1c(O)c3c(c(O)c1C2=O)C[C@@](O)(C(=O)CO)C[C@@H]3O[C@H]1C[C@H](N)[C@H](O)[C@H](C)O1 [DXR, doxorubicin, reference compound] |  |  |  |  |  |  |  |  |  |  | IC50 ([7]; HCT-116, 72 h): 10 ± 1.1 µM |
| OC(Cn1cncn1)(Cn1cncn1)c1ccc(F)cc1F [FLU, Fluconazole, reference compound] |  |  |  |  |  |  |  |  |  |  | MIC ([3]; ATCC44859, 24 h): 0.06 µM (≈ 0.0184 µg/mL); MIC ([3]; ATCC44859, 48 h): 0.12 µM (≈ 0.0368 µg/mL); MIC (Candida tropicalis 156; Candida tropicalis, 156, 24 h): 0.12 µM (≈ 0.0368 µg/mL); MIC (Candida tropicalis 156; Candida tropicalis, 156, 48 h): > 125 µM; MIC (Candida krusei ATCC 6258; ATCC6258, 24 h): 3.91 µM (≈ 1.2 µg/mL); MIC (Candida krusei ATCC 6258; ATCC6258, 48 h): 15.6 µM (≈ 4.78 µg/mL); MIC (Candida glabrata 20/I; 24 h): 0.98 µM (≈ 0.3 µg/mL); MIC (Candida glabrata 20/I; 48 h): 3.91 µM (≈ 1.2 µg/mL); MIC ([4]; Trichosporon beigelii, 1188, 24 h, read-out: MIC (IC80) TB): 0.24 µM (≈ 0.0735 µg/mL); MIC ([4]; Trichosporon beigelii, 1188, 48 h, read-out: MIC (IC80) TB): 0.48 µM (≈ 0.147 µg/mL); IC50 ([5]; Aspergillus fumigatus, 231, 24 h): > 125 µM; IC50 ([5]; Aspergillus fumigatus, 231, 48 h): > 125 µM; IC50 (Absidia corymbifera 272; Lichtheimia corymbifera, 272, 24 h): > 125 µM; IC50 (Absidia corymbifera 272; Lichtheimia corymbifera, 272, 48 h): > 125 µM; IC50 ([6]; Trichophyton mentagrophytes, 445, 72 h): 1.95 µM; IC50 ([6]; Trichophyton mentagrophytes, 445, 120 h): 3.91 µM |

Reference: publication PMC6268061, “Investigation of the Biological Properties of (Hetero)Aromatic Thiosemicarbazones” (Molecules, 2012)
